Experimental findings from PubChem BioAssay (NCI) are described below.

Each structure is given as a SMILES string.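 Method: 48-hour compound exposure of cells in 96-well plates, five concentrations, linear interpolation of endpoints. At the TGI there is no net growth.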 Where only a bound is given, the exact number is not on record here.

Among the test systems are 786-0 renal; A498 renal; A549 NSCLC; BT-549 breast; HCC-2998 colon; HT29 colon; NCI-H460 lung; SNB-75 CNS; T-47D breast; RXF 393 renal; SK-MEL-2 melanoma.
Common to all, as to test: growth of human tumour cells (NCI), 48 h

As for `CCCCCCCC/C=C/CCCCCCCC1CC(O)C(=O)O1` (configuration not stated), the TGI in the experiment with 786-0 renal, with A498 renal, in the experiment with A549 NSCLC, with BT-549 breast, in the experiment with HCC-2998 colon and in the experiment with HT29 colon was more than 100 µM in each case. Besides, the TGI in the experiment with NCI-H460 lung, with SNB-75 CNS and with T-47D breast was more than 100 µM in each case.

Consider `C=C(C(=O)O)[C@@H]1C[C@@H]2O[C@H]1CC(C)=CCC/C(C)=C/CC[C@@]2(C)O`, for which the TGI with 786-0 renal, in the experiment on A498 renal, in the experiment with A549 NSCLC, in the experiment with BT-549 breast, with HCC-2998 colon and in the experiment on NCI-H460 lung was more than 100 µM in each case. The TGI in the experiment on RXF 393 renal, in the experiment on SK-MEL-2 melanoma, in the experiment on SNB-75 CNS and in the experiment on T-47D breast was more than 100 µM throughout.

In the case of `Cc1cc(C#N)c(Nc2c(C)cccc2[N+](=O)[O-])s1`, the TGI in the experiment with 786-0 renal is 89.9 µM; in the experiment on A498 renal it was more than 100 µM; with A549 NSCLC it was more than 100 µM; in the experiment on BT-549 breast, 80.6 µM; in the experiment with HCC-2998 colon, more than 100 µM; with NCI-H460 lung it was more than 100 µM. In addition, the TGI is 55.4 µM in the experiment on RXF 393 renal, 72.2 µM in the experiment with SNB-75 CNS and more than 100 µM in the experiment with T-47D breast.

Regarding `Cc1n[nH]c(=O)n1N1C(=O)c2ccccc2C1=O`, the TGI with 786-0 renal, with A498 renal, with A549 NSCLC, in the experiment on BT-549 breast, with HCC-2998 colon and in the experiment with HT29 colon was more than 100 µM each time. Besides, the TGI with NCI-H460 lung, in the experiment on SK-MEL-2 melanoma, in the experiment with SNB-75 CNS and in the experiment on T-47D breast was more than 100 µM each time.

With `COC1(C)C=NCC(C)(C)NC(=O)C(C)(OC)C=NCC(C)(C)NC1=O` (configuration not stated), the TGI in the experiment on 786-0 renal, in the experiment on A549 NSCLC, in the experiment on BT-549 breast, in the experiment with HCC-2998 colon, in the experiment with HT29 colon and in the experiment on RXF 393 renal was more than 10 µM throughout. The TGI with SNB-75 CNS and in the experiment on T-47D breast was more than 10 µM throughout.

As to `NC(CCCCNC(=O)C(Cc1ccccc1)NC(=O)OCc1ccccc1)C(=O)NC(CCCCNC(=O)C(Cc1ccccc1)NC(=O)OCc1ccccc1)C(=O)NC(CCCCNC(=O)C(Cc1ccccc1)NC(=O)OCc1ccccc1)C(=O)NC(CCCCNC(=O)C(Cc1ccccc1)NC(=O)OCc1ccccc1)C(=O)NC(CCCCNC(=O)C(Cc1ccccc1)NC(=O)OCc1ccccc1)C(=O)NC(CCCCNC(=O)C(Cc1ccccc1)NC(=O)OCc1ccccc1)C(=O)O` (configuration not stated), the TGI in the experiment on 786-0 renal, in the experiment with A549 NSCLC, with BT-549 breast, in the experiment on HCC-2998 colon, in the experiment on HT29 colon and in the experiment with NCI-H460 lung was more than 100 µM each time. Further, the TGI in the experiment with SK-MEL-2 melanoma, with SNB-75 CNS and in the experiment on T-47D breast was more than 100 µM in each case.

Turning to `CCn1cnc2c(NC(C)=O)ncnc21`, the TGI with 786-0 renal, in the experiment on A549 NSCLC, in the experiment on BT-549 breast, with HCC-2998 colon, in the experiment with HT29 colon and in the experiment with NCI-H460 lung was more than 100 µM in each case. Moreover, the TGI in the experiment on RXF 393 renal, with SK-MEL-2 melanoma, in the experiment on SNB-75 CNS and in the experiment on T-47D breast was more than 100 µM in each case.

For `CC1OC(OC2CC(O)(C(=O)CO)Cc3c(O)c4c(c(O)c32)C(=O)c2ccccc2C4=O)CC(N)C1O` (configuration not stated), the TGI with A498 renal came to 0.0526 µM; with BT-549 breast, 4.03 µM; in the experiment with HCC-2998 colon it was 0.084 µM; in the experiment on HT29 colon, 0.493 µM; in the experiment with NCI-H460 lung, 0.0366 µM; with RXF 393 renal, 0.152 µM. The TGI in the experiment with SNB-75 CNS was 0.107 µM; in the experiment on T-47D breast, 0.134 µM.

Consider `CC(=O)OCc1cn(S(=O)(=O)c2ccc(C)cc2)cn1`, for which the TGI in the experiment on 786-0 renal, with A498 renal, with A549 NSCLC, in the experiment on BT-549 breast, in the experiment on HCC-2998 colon and in the experiment on HT29 colon was more than 100 µM throughout. For the same compound, the TGI with NCI-H460 lung, in the experiment with RXF 393 renal, with SNB-75 CNS and with T-47D breast was more than 100 µM throughout.

On to `c1ccc2c(c1)C(=Nc1ccc(N=C3c4ccccc4-c4ccccc43)cc1)c1ccccc1-2`, for which the TGI with 786-0 renal, in the experiment with A498 renal, with A549 NSCLC, in the experiment with BT-549 breast, in the experiment with HCC-2998 colon and in the experiment on HT29 colon was more than 100 µM in each case. Further, the TGI with NCI-H460 lung, in the experiment on RXF 393 renal, in the experiment on SK-MEL-2 melanoma and in the experiment with T-47D breast was more than 100 µM each time.

For `CCCCP(CCCC)(CCCC)=C(C(=O)OC)C(C(=O)OC)=C1SC(C(=O)OC)=C(C(=O)OC)S1`, the TGI stood at 40 µM in the experiment on 786-0 renal; 40.1 µM in the experiment on A549 NSCLC; 30.9 µM in the experiment with BT-549 breast; 30.7 µM with HT29 colon; 35.9 µM with NCI-H460 lung; 22.8 µM in the experiment on RXF 393 renal. In addition, the TGI was 63.1 µM in the experiment on SK-MEL-2 melanoma, 45.4 µM in the experiment on SNB-75 CNS and 43.7 µM with T-47D breast.

On to `C/C(=N\Nc1nc2ccccc2o1)c1ccncn1`, for which the TGI with 786-0 renal was 18.3 µM; with A498 renal, 10.7 µM; with A549 NSCLC, more than 32.7 µM; in the experiment on BT-549 breast, more than 100 µM; with HCC-2998 colon, 29 µM; in the experiment on HT29 colon, more than 35.6 µM. The TGI is more than 42.6 µM with NCI-H460 lung, more than 25.8 µM in the experiment on SK-MEL-2 melanoma, more than 48.2 µM in the experiment on SNB-75 CNS and 23.2 µM in the experiment with T-47D breast.

On to `COC(=O)[C@@H]1C[C@]2(CC=C(C)C)c3ccccc3N(S(=O)(=O)c3ccccc3)[C@@H]2N1C(=O)OC`, for which the TGI in the experiment on 786-0 renal was more than 100 µM; with A549 NSCLC, more than 100 µM; in the experiment with BT-549 breast it was more than 100 µM; with HCC-2998 colon it was 40.1 µM; with HT29 colon, more than 100 µM; in the experiment with NCI-H460 lung, 94 µM. For the same compound, the TGI in the experiment with RXF 393 renal is 43.9 µM; with SK-MEL-2 melanoma it was 34.3 µM; in the experiment with SNB-75 CNS it was 38.2 µM; in the experiment on T-47D breast it was more than 100 µM.
